EP3670512A1, “DIAZABICYCLOOCTANONES AS INHIBITORS OF SERINE BETA-LACTAMASES” (Antabio SAS, priority 2018, dated 2020)
Values after ≈ are worked out from the molar mass of the structure shown.

Columns and labels:
AmpC = assay: In vitro enzyme inhibition assay (nitrocefin hydrolysis), AmpC; type: biochemical; details: nitrocefin 100µM, 10mM HEPES pH 7.5; banded; read-out: Amp-C mean IC50
Experimental: (§1) Compound dilution was performed in DMSO.

[1] = test system: NTBC091.1 (E. coli strain expressing KPC-2, TEM-1); assay: Meropenem potentiation, broth micro-dilution MIC, strain NTBC091.1; type: cell-based; details: for MIC mero + 4 µg/mL inhibitor: NTBC091.1, MIC of meropenem with 4 µg/mL of the labelled compound; for MIC of combination with meropenem compared with the combination of meropenem and avibactam: strain NTBC091.1
[2] = test system: NTBC093 (E. cloacae strain expressing KPC-2, TEM-1); assay: Meropenem potentiation, broth micro-dilution MIC, strain NTBC093; type: cell-based; details: for MIC mero + 4 µg/mL inhibitor: NTBC093, MIC of meropenem with 4 µg/mL of the labelled compound, banded
[3] = test system: NTBC096.1 (K. pneumoniae strain expressing OXA-181 and SHV-11); assay: Meropenem potentiation, broth micro-dilution MIC, strain NTBC096.1; type: cell-based
[4] = test system: NTBC099 (K. pneumoniae strain expressing KPC-3, SHV-11 and TEM-1); assay: microbe, parasite or virus in culture; type: cell-based; details: Klebsiella pneumoniae, read-out: MIC mero, µg/mL, no inhibitor
[5] = test system: NTBC189 (K. pneumoniae strain expressing TEM-OSBL(b), CTX-M-14, OXA-48(c)); assay: Meropenem potentiation, broth micro-dilution MIC, strain NTBC189; type: cell-based
[6] = test system: clinical strains of Enterobacteriaceae that are resistant to betalactam antibiotics (produce OXA variants of SBL enzymes); assay: Cumulative MIC against large panel of resistant clinical strains (Figure 1); type: cell-based; details: at an MIC of 1 µg/mL, Example 10 in combination with meropenem
Source text: The data is presented in Figure 1 in the standard cumulative MIC fashion.

[7] = test system: panel of 48 A. baumannii strains that are resistant to betalactam antibiotics (produces OXA variants of SBL enzymes); assay: Cumulative MIC against panel of 48 resistant strains (Figure 2); type: cell-based; details: in the presence of 16 µg/mL of each inhibitor, Example 10 in combination with meropenem
Source text: The data is presented in Figure 2 in the standard cumulative MIC fashion.

CTX-M15 = CTX-M15 (Escherichia coli, UniProt Q9EXV5); assay: In vitro enzyme inhibition assay (nitrocefin hydrolysis), CTX-M15; type: biochemical; details: nitrocefin 50µM, 10mM HEPES pH 7.5; numeric value
CTX-M15, sequence (Q9EXV5 29-291, species assumed): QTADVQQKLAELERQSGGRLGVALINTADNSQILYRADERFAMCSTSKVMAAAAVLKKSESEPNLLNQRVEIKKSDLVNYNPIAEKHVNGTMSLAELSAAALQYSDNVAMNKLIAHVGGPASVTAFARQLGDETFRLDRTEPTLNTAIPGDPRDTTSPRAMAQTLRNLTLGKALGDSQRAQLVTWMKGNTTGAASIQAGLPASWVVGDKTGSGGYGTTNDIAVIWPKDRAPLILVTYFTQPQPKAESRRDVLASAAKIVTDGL
Experimental: as §1

[8] = Klebsiella pneumoniae, read-out: MIC mero, µg/mL, no inhibitor

Compound | IC50 (AmpC) [nM] | MIC mero + 4 µg/mL inhibitor ([1]; banded) | MIC mero + 4 µg/mL inhibitor [2] | further results
O=C1N2C[C@@H](CC[C@@H]2F)N1OS(=O)(=O)[O-].[Na+] [Example 11, Sodium (2S, 5R)-2-fluoro-7-oxo-1,6-diazabicyclo [3.2.1] octan-6-yl sulfate] | > 60 | (A) (MIC < 1 µg/mL (A)) | (B) (MIC = 1 or 2 µg/mL (B)) | 
O=C1N2C[C@@H](CC[C@H]2CCl)N1OS(=O)(=O)[O-].[Na+] [Example 6, Sodium (2S, 5R)-2-(chloromethyl)-7-oxo-1,6-diazabicyclo[3.2.1]octan-6-yl sulphate] | 10 to 40 | (A) (MIC < 1 µg/mL (A)) | (A) (MIC < 1 µg/mL (A)) | 
O=C1N2C[C@@H](CC[C@H]2Cl)N1OS(=O)(=O)[O-].[Na+] [Example 12, Sodium (2R,5R)-2-chloro-7-oxo-1,6-diazabicyclo[3.2.1]octan-6-yl sulfate] | < 10 | (A) (MIC < 1 µg/mL (A)) | (A) (MIC < 1 µg/mL (A)) | MIC of combination with meropenem compared with the combination of meropenem and avibactam [1]: lower
O=C1N2C[C@@H](CC[C@H]2CF)N1OS(=O)(=O)[O-].[Na+] [Example 4, Sodium (2S, 5R)-2-(fluoromethyl)-7-oxo-1,6-diazabicyclo[3.2.1]octan-6-yl sulphate] | < 10 | (A) (MIC < 1 µg/mL (A)) | (A) (MIC < 1 µg/mL (A)) | 
C[C@@H](O)[C@H]1C(=O)N2C(C(=O)O)=C(S[C@@H]3CN[C@H](C(=O)N(C)C)C3)[C@H](C)[C@H]12 [meropenem, reference compound] |  |  |  | MIC ([1]; Escherichia coli, read-out: MIC mero, µg/mL, no inhibitor): 4 µg/mL; MIC ([2]; Enterobacter cloacae, read-out: MIC mero, µg/mL, no inhibitor): 8 µg/mL; MIC [3, 8]: 32 µg/mL; MIC [4]: 256 µg/mL (≈ 668 µM); MIC [5, 8]: 32 µg/mL; fraction of strains susceptible [6]: 0%; fraction of strains susceptible [7]: less than 10%
O=C1N2C[C@@H](CC[C@H]2C(F)F)N1OS(=O)(=O)[O-].[Na+] [Example 2, Sodium (2S, 5R)-7-oxo-2-(difluoromethyl)-1,6-diazabicyclo[3.2.1]octan-6-yl sulfate] | 10 to 40 | (A) (MIC < 1 µg/mL (A)) |  | MIC mero + 4 µg/mL inhibitor ([1]; numeric): 0.03 µg/mL; MIC of combination with meropenem compared with the combination of meropenem and avibactam [1]: lower
O=C1N2C[C@@H](CC[C@H]2C(F)(F)c2nccs2)N1OS(=O)(=O)[O-].[Na+] [Example 9, Sodium (2S, 5R)-2-[difluoro(1,3-thiazol-2-yl)methyl]-7-oxo-1,6-diazabicyclo[3.2.1]octan-6-yl sulphate] | < 10 | (A) (MIC < 1 µg/mL (A)) | (A) (MIC < 1 µg/mL (A)) | 
O=C1N2C[C@@H](CC[C@H]2C(Cl)Cl)N1OS(=O)(=O)[O-].[Na+] [Example 3, Sodium (2S,5R)-2-(dichloromethyl)-7-oxo-1,6-diazabicyclo[3.2.1]octan-6-yl sulfate] | 40 to 60 | (A) (MIC < 1 µg/mL (A)) | (A) (MIC < 1 µg/mL (A)) | 
O=C1N2C[C@@H](CC[C@H]2F)N1OS(=O)(=O)[O-].[Na+] [Example 10, Sodium (2R,5R)-2-fluoro-7-oxo-1,6-diazabicyclo[3.2.1]octan-6-yl sulfate] | 10 to 40 | (A) (MIC < 1 µg/mL (A)) | (A) (MIC < 1 µg/mL (A)) | MIC of combination with meropenem compared with the combination of meropenem and avibactam [1]: lower; MIC of combination with meropenem compared with the combination of meropenem and avibactam ([2]; strain NTBC093): similar; MIC of combination with meropenem compared with the combination of meropenem and avibactam ([3]; strain NTBC096.1): lower; MIC of combination with meropenem compared with the combination of meropenem and avibactam ([5]; strain NTBC189): lower; fraction of strains susceptible [6]: over 90%
O=C1N2C[C@@H](CC[C@H]2COC(F)(F)F)N1OS(=O)(=O)[O-].[Na+] [Example 8, Sodium (2S, 5R)-7-oxo-2-[(trifluoromethoxy)methyl]-1,6-diazabicyclo[3.2.1]octan-6-yl sulphate] | 40 to 60 | (A) (MIC < 1 µg/mL (A)) | (A) (MIC < 1 µg/mL (A)) | 
O=C1N2C[C@@H](CC[C@H]2C(F)(F)F)N1OS(=O)(=O)[O-].[Na+] [Example 1, Sodium (2S, 5R)-7-oxo-2-(trifluoromethyl)-1,6-diazabicyclo[3.2.1]octan-6-yl sulfate] | < 10 | (A) (MIC < 1 µg/mL (A)) |  | MIC mero + 4 µg/mL inhibitor ([1]; numeric): 0.03 µg/mL; MIC of combination with meropenem compared with the combination of meropenem and avibactam [1]: lower
CC(F)(F)[C@@H]1CC[C@@H]2CN1C(=O)N2OS(=O)(=O)[O-].[Na+] [Example 5, Sodium (2S, 5R)-2-(1,1-difluoroethyl)-7-oxo-1,6-diazabicyclo[3.2.1]octan-6-yl sulphate] | 40 to 60 | (A) (MIC < 1 µg/mL (A)) | (A) (MIC < 1 µg/mL (A)) | 
O=C1N2C[C@@H](CC[C@H]2SC(F)(F)F)N1OS(=O)(=O)[O-].[Na+] [Example 7, Sodium (2R, 5R)-7-oxo-2-[(trifluoromethyl)sulfanyl]-1,6-diazabicyclo[3.2.1]octan-6-yl sulphate] | 40 to 60 | (A) (MIC < 1 µg/mL (A)) | (B) (MIC = 1 or 2 µg/mL (B)) | 
NC(=O)[C@@H]1CC[C@@H]2CN1C(=O)N2OS(=O)(=O)O [Avibactam, avibactam] |  |  |  | IC50 (CTX-M15): 1.4 nM; MIC mero + 4 µg/mL inhibitor ([1]; numeric): 0.06 (A) µg/mL; MIC mero + 4 µg/mL inhibitor ([3]; NTBC096.1, MIC of meropenem with 4 µg/mL of the labelled compound, numeric): 1(B) µg/mL
